Positions of bridges follow the written chain, without caps; N, C: chain ends. Non-standard residues stand in square brackets, D forms with d. Residues, ends and D or L forms follow the SMILES beside them. S5 = C=CCCC[C@](C)(N)C(=O)O

Consider five compounds from PMC9081086, “Stapling strategy enables improvement of antitumor activity and proteolytic stability of host-defense peptide hymenochirin-1B” (RSC Advances, 2018).

The conditions of data set [1]: the molecule shown is the open-chain precursor; 33-membered ring; resin; 60 steps.
A short description of data set [2]: Protease resistance (trypsin degradation, HPLC). The class given is in vitro ADME. The conditions noted are these: trypsin solution (5 ng/µL), room temperature, HPLC 214 nm, duplicate; for half-life at 0.1 mM: trypsin 5 ng/μL in 50 mM PBS with 2 mM CaCl2, pH 7.4 (method: trypsin buffer pH 8), peptide 0.1 mM final, sampled 0–3.5 h, HCl quench, read-out: half-life (t1/2) toward trypsin degradation (converted). As to the method: The peptides were dissolved in PBS buffer solutions (50 mM, pH = 7.4) to a final concentration of 1 mM, respectively. Trypsin was dissolved in PBS buffer (50 mM, containing 2 mM of CaCl2, pH = 8) to a final concentration of 5 ng μL^−1. Then the peptide solutions (100 μL) were incubated with trypsin solution (1 mL) at room temperature. 100 μL of digestion mixture was taken at the 0, 0.5, 1.0, 1.5, 2.0, 2.5, 3.0, and 3.5 h marks, then quenched with 20 μL of hydrochloric acid (1 M). The solution of the trypsin peptide fragments was monitored by HPLC at different time to determine the fraction of protease degradation at 214 nm. Each experiment was performed in duplicate.
To assess the protease stability of the stapled peptides, we measured their susceptibility toward trypsin degradation at room temperature in PBS buffer (pH 7.4) with monitored by HPLC. Trypsin is a protease that predominantly cleaves at the carboxyl terminus of positive charge amino acids, such as arginine and lysine. […] Especially, only about 49% of bicyclic stapled peptide H-10 was cleaved after 3.5 h (Fig. 3 and S4 ^†).
Fig. 3 Proteolytic stability of peptides incubated in trypsin solution (5 ng μL^−1 in 50 mM PBS buffer, pH = 7.4) at a final concentration of 0.1 mM. […] The percent of residual peptide was monitored by Analytic HPLC. All experiments were repeated at least three times. H-0 represents hymenochirin-1B.

Data set [3] is described as follows: Circular dichroism, α-helicity. The class given is physicochemical. Particulars: CD, TFE/water (1:1), 50 μM peptide, 25 °C, 1 mm cuvette, calculated from [θ]222. As to the method:
The linear and stapled peptides were dissolved in the trifluoroethanol (TFE) and water (1 : 1) to a final concentration of 50 μM, respectively. The CD spectra were obtained with 1 mm quartz cuvette on Jasco-815 spectropolarimeter at 25 °C. The measurement parameters were set up as follows: wavelength, 185–260 nm; step resolution, 0.5 nm; speed, 20 nm min^−1. All spectra were converted to a uniform scale of molar ellipticity after background subtraction. The curves were smoothed using standard parameters. The ellipticity in the acquired CD spectra was converted to the molar ellipticity using the equation: [θ] = θ/(10 × c × l), where, [θ] is the Molar ellipticity (deg cm^2. d mol^−1), θ is the observed ellipticity corrected for the buffer at a given wavelength (m deg), c is the molar concentration and l is the path length (cm). The helicity of each peptide was calculated as described in a literature based on the ellipticity of the peptide's spectrum at 222 nm and the number of amino acids in the peptide sequence.
Circular dichroism (CD) spectroscopy was used to investigate the secondary structures of the stapled and template peptides to probe structural changes induced by conformation constraint in a membrane-like milieu, including […] (TFE) and water (1 : 1). […] (Table 1, ESI ^†).

Data set [4] has as its system human normal Lung cell BEAS-2. Description: MTT toxicity against normal cells, BEAS-2B. Format: cell-based. Particulars: 96 h. As for the experimental part:
(§1) Anti-tumor activity was evaluated by the standard MTT assay with a slight modification measuring the median inhibitory concentration (IC50) values.[35] HCT-116 cells, HepG2 cells and A549 cells were plated in triplicate wells into a 96-well plate at 5 × 10^3/well and cultured routinely for 24 h. Cells were incubated with increasing concentrations of hymenochirin-1B and its analogs (0.1–30 μM) and continued to culture with DMEM plus 10% FBS at 37 °C and 5% CO2. After being incubated for 96 h, the absorbance A value was determined by MTT at 540 nm. The untreated HCT-116 cells, HepG2 cells and A549 cells were used as control. Each experiment was performed in duplicate. The inhibitory rate was calculated according to the following formula: inhibitory rate = (a value of the control group − a value of the study group)/a value of the control group × 100%.
(§2) To further research the selectivity of these peptides towards cancer cells over normal cells. The growth-inhibitory activities of peptides were evaluated using the 3-(4,5-dimethylthiazol-2-yl)-2,5-diphenyltetrazolium bromide (MTT) assay against three normal cells,[35] namely, human normal liver cell LO-2, human normal Lung cell BEAS-2 and human normal kidney cell 293 T (Table S2 ^†). The experiments procedure was performed just same as growth inhibition of the peptides against tumor cells. […] It might be due to the higher averaged hydrophobicity produced by six or nine additional methylene and two olefinic carbons to the peptide to increase toxicity to human normal cells. This situation may be resolved through the addition of polar character and glycosylation into the sequence to decrease the averaged hydrophobicity to improve the selectivity of these peptides towards cancer cells over normal cells. These modifications of these peptides are under way, and the present study was focused on the improved anti-tumor activity of template peptide hymenochirin-1B.

Data set [5] relates to human normal kidney cell 293 T. Nature of the data set: MTT toxicity against normal cells, 293T. The class given is cell-based. Particulars: 96 h. As for the experimental part:
as §1, §2

The subject of data set [6] is human normal liver cell LO-2. Nature of the data set: MTT toxicity against normal cells, LO-2. The class given is cell-based. Particulars: 96 h. As for the experimental part: as §1, §2

Turning to `C=CCCCCCC[C@@](C)(NC(=O)[C@H](CCCCNC(=O)OC(C)(C)C)NC(=O)[C@H](CC(C)C)NC(=O)[C@@H](NC(=O)[C@H](CCCCNC(=O)OC(C)(C)C)NC(=O)[C@H](CCCCNC(=O)OC(C)(C)C)NC(=O)[C@H](CC(C)C)NC(=O)[C@H](CC(=O)NC(c1ccccc1)(c1ccccc1)c1ccccc1)NC(=O)[C@H](CC(=O)OC(C)(C)C)NC(=O)[C@H](CCCCNC(=O)OC(C)(C)C)NC(=O)[C@@H](NC(=O)[C@H](CCC(=O)OC(C)(C)C)NC(=O)[C@@H]1CCCN1C(=O)[C@H](COC(C)(C)C)NC(=O)[C@H](CC(C)C)NC(=O)[C@H](CCCCNC(=O)OC(C)(C)C)NC(=O)[C@@H](NC(=O)OCC1c2ccccc2-c2ccccc21)[C@@H](C)CC)[C@@H](C)OC(C)(C)C)C(C)C)C(=O)N[C@@H](C)C(=O)N[C@H](C(=O)N[C@@H](CCCCNC(=O)OC(C)(C)C)C(=O)NCC(=O)N[C@@H](C)C(=O)N[C@H](C(=O)N[C@@](C)(CCCC=C)C(=O)N[C@H](C(=O)N[C@@H](C)C(=O)N[C@@H](CCCCNC(=O)OC(C)(C)C)C(=O)N[C@@H](CCSC)C(=O)N[C@H](C(N)=O)C(C)C)C(C)C)[C@@H](C)CC)[C@@H](C)CC`, the ring closure, overall yield in data set [1] is 6.72%.
On to `CC[C@H](C)[C@H](N)C(=O)N[C@@H](CCCCN)C(=O)N[C@@H](CC(C)C)C(=O)N[C@@H](CO)C(=O)N1CCC[C@H]1C(=O)N[C@@]1(C)CCCC=CCCC[C@@](C)(C(=O)N[C@@H](CC(C)C)C(=O)N[C@@H](CCCCN)C(=O)N[C@@H](CCCCN)C(=O)N[C@H](C(=O)N[C@@H](CC(C)C)C(=O)N[C@@H](CCCCN)C(=O)NCC(=O)N[C@@H](C)C(=O)N[C@H](C(=O)N[C@@H](CCCCN)C(=O)NCC(=O)N[C@@H](C)C(=O)N[C@H](C(=O)N[C@@H](C)C(=O)N[C@H](C(=O)N[C@@H](C)C(=O)N[C@@H](CCCCN)C(=O)N[C@@H](CCSC)C(=O)N[C@H](C(N)=O)C(C)C)C(C)C)[C@@H](C)CC)[C@@H](C)CC)C(C)C)NC(=O)[C@H](CC(=O)O)NC(=O)[C@H](CCCCN)NC(=O)[C@H]([C@@H](C)O)NC1=O` [H-2] (H-IKLSP[S5]TKD[S5]LKKVLKGAIKGAIAVAKMV-NH2; staple 6-10), for which, in data set [2], the half-life at 0.1 mM is 30 min. In addition, the “Helicity (%)” value in data set [3] is listed as 49.3%. For the same compound, in data set [4], the “IC50 (μM) BEAS-2B, toxicity against normal cells” value (“IC50 (μM) BEAS-2B, toxicity” below) came out at 3.12 ± 0.52 µM. For the same compound, the “IC50 (μM) 293T, toxicity against normal cells” value (“IC50 (μM) 293T, toxicity” for short) in data set [5] turned out to be 3.20 ± 0.33 µM. Moreover, the “IC50 (μM) LO-2, toxicity against normal cells” value (shortened to “IC50 (μM) LO-2, toxicity”) in data set [6] was 3.40 ± 0.32 µM.
For `CC[C@H](C)[C@H](N)C(=O)N[C@@H](CCCCN)C(=O)N[C@@H](CC(C)C)C(=O)N[C@@H](CO)C(=O)N1CCC[C@H]1C(=O)N[C@@H](CCC(=O)O)C(=O)N[C@H](C(=O)N[C@@H](CCCCN)C(=O)N[C@@H](CC(=O)O)C(=O)N[C@@H](CC(N)=O)C(=O)N[C@@H](CC(C)C)C(=O)N[C@@H](CCCCN)C(=O)N[C@@H](CCCCN)C(=O)N[C@H](C(=O)N[C@@H](CC(C)C)C(=O)N[C@@H](CCCCN)C(=O)NCC(=O)N[C@@]1(C)CCCC=CCCC[C@@](C)(C(=O)N[C@H](C(=O)N[C@@H](C)C(=O)N[C@H](C(=O)N[C@@H](C)C(=O)N[C@@H](CCCCN)C(=O)N[C@@H](CCSC)C(=O)N[C@H](C(N)=O)C(C)C)C(C)C)[C@@H](C)CC)NC(=O)CNC(=O)[C@H](CCCCN)NC(=O)[C@H]([C@@H](C)CC)NC1=O)C(C)C)[C@@H](C)O` [H-5] (H-IKLSPETKDNLKKVLKG[S5]IKG[S5]IAVAKMV-NH2; staple 18-22), in that order: 168 min, 69.2%, 5.76 ± 0.32 µM, 4.70 ± 0.32 µM and 3.57 ± 0.52 µM.
With `CC[C@H](C)[C@H](N)C(=O)N[C@@H](CCCCN)C(=O)N[C@@H](CC(C)C)C(=O)N[C@@H](CO)C(=O)N1CCC[C@H]1C(=O)N[C@@]1(C)CCCC=CCCC[C@@](C)(C(=O)N[C@@H](CC(C)C)C(=O)N[C@@H](CCCCN)C(=O)N[C@@H](CCCCN)C(=O)N[C@H](C(=O)N[C@@H](CC(C)C)C(=O)N[C@@H](CCCCN)C(=O)NCC(=O)N[C@@]2(C)CCCC=CCCC[C@@](C)(C(=O)N[C@H](C(=O)N[C@@H](C)C(=O)N[C@H](C(=O)N[C@@H](C)C(=O)N[C@@H](CCCCN)C(=O)N[C@@H](CCSC)C(=O)N[C@H](C(N)=O)C(C)C)C(C)C)[C@@H](C)CC)NC(=O)CNC(=O)[C@H](CCCCN)NC(=O)[C@H]([C@@H](C)CC)NC2=O)C(C)C)NC(=O)[C@H](CC(=O)O)NC(=O)[C@H](CCCCN)NC(=O)[C@H]([C@@H](C)O)NC1=O` [H-10] (H-IKLSP[S5]TKD[S5]LKKVLKG[S5]IKG[S5]IAVAKMV-NH2; staple 6-10, 18-22), the metabolised at 3.5 h, 0.1 mM in data set [2] (trypsin 5 ng/μL in 50 mM PBS, pH 7.4, peptide 0.1 mM final, 3.5 h, read-out: peptide cleaved by trypsin after 3.5 h) is roughly 49%. In addition, in data set [3], the “Helicity (%)” value is listed as 73.3%. In data set [4], the “IC50 (μM) BEAS-2B, toxicity” value is 5.52 ± 0.42 µM. Further, the “IC50 (μM) 293T, toxicity” value in data set [5] was found to be 10.42 ± 0.25 µM. In addition, the “IC50 (μM) LO-2, toxicity” value in data set [6] amounted to 8.78 ± 0.32 µM.
As for `CC[C@H](C)[C@H](N)C(=O)N[C@@H](CCCCN)C(=O)N[C@@H](CC(C)C)C(=O)N[C@@H](CO)C(=O)N1CCC[C@H]1C(=O)N[C@@H](CCC(=O)O)C(=O)N[C@H](C(=O)N[C@@H](CCCCN)C(=O)N[C@@H](CC(=O)O)C(=O)N[C@@H](CC(N)=O)C(=O)N[C@@H](CC(C)C)C(=O)N[C@@H](CCCCN)C(=O)N[C@@H](CCCCN)C(=O)N[C@H](C(=O)N[C@@H](CC(C)C)C(=O)N[C@@H](CCCCN)C(=O)NCC(=O)N[C@@H](C)C(=O)N[C@H](C(=O)N[C@@H](CCCCN)C(=O)NCC(=O)N[C@@H](C)C(=O)N[C@H](C(=O)N[C@@H](C)C(=O)N[C@H](C(=O)N[C@@H](C)C(=O)N[C@@H](CCCCN)C(=O)N[C@@H](CCSC)C(=O)N[C@H](C(N)=O)C(C)C)C(C)C)[C@@H](C)CC)[C@@H](C)CC)C(C)C)[C@@H](C)O` [Hymenochirin-1B] (H-IKLSPETKDNLKKVLKGAIKGAIAVAKMV-NH2), the half-life at 0.1 mM in data set [2] is 16.8 min. In addition, in data set [3], the “Helicity (%)” value is 48.7%. Further, the “IC50 (μM) BEAS-2B, toxicity” value in data set [4] turned out to be 9.24 ± 0.25 µM. In addition, the “IC50 (μM) 293T, toxicity” value in data set [5] was 11.12 ± 0.35 µM. For the same compound, in data set [6], the “IC50 (μM) LO-2, toxicity” value came out at 23.98 ± 0.32 µM.
